Source: ChEMBL document CHEMBL4007419, “Discovery of hyaluronidase inhibitors from natural products and their mechanistic characterization under DMSO-perturbed assay conditions” (Bioorg Med Chem Lett, 2017)
pIC50: −log10 of the molar value. Calls of active or inactive are those of the source. The calls are words filed in the database; no cut-off is given here.

Key:
Homo sapiens [1] = organism: Homo sapiens; assay: Inhibition of CaCl2 activated hyaluronidase (unknown origin) up to 400 uM using hyaluronic acid as substrate preincubated for 20 mins followed by substrate addition measured after 10 mins in presence of up to 15% DMSO by colorimetric method
[2] = Inhibition of hyaluronidase (unknown origin) using hyaluronic acid as substrate preincubated for 20 mins followed by substrate addition measured after 40 mins by colorimetric method; design: species or system Homo sapiens
[3] = Inhibition of hyaluronidase (unknown origin) using hyaluronic acid as substrate preincubated for 20 mins followed by CaCl2 activation for 20 mins and subsequent substrate addition measured after 10 mins by colorimetric method; design: species or system Homo sapiens
[4] = Inhibition of CaCl2 activated hyaluronidase (unknown origin) using hyaluronic acid as substrate preincubated for 20 mins followed by substrate addition measured after 10 mins by colorimetric method; design: species or system Homo sapiens
[5] = Inhibition of CaCl2 activated hyaluronidase (unknown origin) using hyaluronic acid as substrate preincubated for 20 mins followed by substrate addition measured after 10 mins in presence of Triton-X-100 by colorimetric method; design: species or system Homo sapiens
Homo sapiens [6] = organism: Homo sapiens; assay: Ratio of IC50 for CaCl2 activated hyaluronidase (unknown origin) to IC50 for hyaluronidase (unknown origin) using hyaluronic acid as substrate preincubated for 20 mins followed by CaCl2 activation
Homo sapiens [7] = organism: Homo sapiens; assay: Inhibition of CaCl2 activated hyaluronidase (unknown origin) up to 3000 uM using hyaluronic acid as substrate preincubated for 20 mins followed by substrate addition measured after 10 mins in presence of up to 21% DMSO by colorimetric method
Homo sapiens [8] = organism: Homo sapiens; assay: Inhibition of CaCl2 activated hyaluronidase (unknown origin) up to 4000 uM using hyaluronic acid as substrate preincubated for 20 mins followed by substrate addition measured after 10 mins in presence of up to 20% DMSO by colorimetric method
[9] = Inhibition of CaCl2 activated hyaluronidase (unknown origin) using hyaluronic acid as substrate preincubated for 20 mins followed by substrate addition measured after 10 mins in presence of dithiothreitol by colorimetric method; design: species or system Homo sapiens
Homo sapiens [10] = organism: Homo sapiens; assay: Non-competitive inhibition of hyaluronidase (unknown origin) up to 1000 um using hyaluronic acid as substrate preincubated for 20 mins followed by substrate addition measured after 10 mins by Lineweaver-Burk plot analysis

Q: Which inhibition (Homo sapiens [1]) does the source give for `CC1(C)CC[C@]2(C(=O)O[C@@H]3O[C@H](CO)[C@@H](O)[C@H](O)[C@H]3O)CC[C@]3(C)C(=CC[C@@H]4[C@@]5(C)CC[C@H](O[C@@H]6O[C@H](C(=O)O)[C@@H](O[C@@H]7O[C@@H](CO)[C@H](O)[C@H]7O)[C@H](O)[C@H]6O)C(C)(C)[C@@H]5CC[C@]43C)[C@@H]2C1` here?
A: inactive

Q: What about the pIC50 [2] of the same compound?
A: 4.62

Q: And the pIC50 [3]?
A: 4.52

Q: What about the pIC50 [4] of the same compound?
A: 4.10

Q: What about the pIC50 [5] of the same compound?
A: 3.72

Q: What about the Ratio IC50 (Homo sapiens [6]) of the same compound?
A: 2.5

Q: Which inhibition (Homo sapiens [7]) does the source give for `O=C(O[C@@H]1Cc2c(O)cc(O)cc2O[C@@H]1c1cc(O)c(O)c(O)c1)c1cc(O)c(O)c(O)c1` here?
A: Active

Q: Which inhibition (Homo sapiens [8]) does the source give for `Oc1cc(O)c2c(c1)O[C@H](c1ccc(O)c(O)c1)[C@@H](O)C2` here?
A: Active

Q: With `Oc1cc(O)c2c(c1)O[C@@H](c1ccc(O)c(O)c1)[C@H](O)C2` [(-)-CATECHIN] as the compound, how does the pIC50 [2] read?
A: 2.96

Q: With `Oc1cc(O)c2c(c1)O[C@H](c1ccc(O)c(O)c1)[C@H](O)C2` [(-)-EPICATECHIN] as the compound, how does the pIC50 [2] read?
A: 3.09

Q: What about the pIC50 [3] of the same compound?
A: 3.16

Q: What about the pIC50 [4] of the same compound?
A: 3.10

Q: What about the pIC50 [5] of the same compound?
A: 3.13

Q: What about the pIC50 [9] of the same compound?
A: 3.09

Q: And the inhibition (Homo sapiens [7])?
A: Active

Q: And the inhibition (Homo sapiens [10])?
A: Active

Q: With `O=C(O)[C@H]1O[C@@H](Oc2cc3oc(-c4ccccc4)cc(=O)c3c(O)c2O)[C@H](O)[C@@H](O)[C@@H]1O` [BAICALIN] as the compound, how does the pIC50 [2] read?
A: 3.30

Q: With `CC1(C)CC[C@]2(C(=O)O[C@@H]3O[C@H](CO)[C@@H](O)[C@H](O)[C@H]3O)CC[C@]3(C)C(=CC[C@@H]4[C@@]5(C)CC[C@H](O[C@@H]6O[C@H](C(=O)O)[C@@H](O)[C@H](O)[C@H]6O[C@@H]6O[C@H](CO)[C@@H](O)[C@H](O)[C@H]6O)C(C)(C)[C@@H]5CC[C@]43C)[C@@H]2C1` [GINSENOSIDE R0] as the compound, how does the pIC50 [2] read?
A: 4.47

Q: With `CC1(C)[C@@H](O[C@H]2O[C@H](C(=O)O)[C@@H](O)[C@H](O)[C@H]2O[C@@H]2O[C@H](C(=O)O)[C@@H](O)[C@H](O)[C@H]2O)CC[C@]2(C)[C@H]3C(=O)C=C4[C@@H]5C[C@@](C)(C(=O)O)CC[C@]5(C)CC[C@@]4(C)[C@]3(C)CC[C@@H]12` [GLYCYRRHIZIN] as the compound, how does the pIC50 [2] read?
A: 5.07
